According to patent publication US9597416B2, “Fluorescent membrane intercalating probes and methods for their use” (PHANOS TECHNOLOGIES, INC., priority 2005, dated 2017):
Blank lines part the entries; values can stand above or below the compound they belong to.

Tests used:
[1] = Absorbance/emission spectra in ethanol; type: physicochemical; conditions: for Abs Max / Flourescence Ex Max / Fluorescence Em Max: 0.25 μM solutions in ethanol; for Extinction Coefficient: ethanol, approximate, maximum absorbance divided by nominal concentration
Experimental: Referring now to Tables 1 and 2, there are shown the absorbance and emission maxima of some example compounds of the present invention. Absorption and Fluorescence spectra were run using 0.25 μM solutions in ethanol on a Jasco, Inc. UV-530 UV/VIS spectrophotometer and FP 750 spectrofluorometer, respectively. Approximate extinction coefficients were estimated from the absorbance scans by dividing the maximum absorbance by the nominal concentration ([…]).

[2] = Solubility in Diluent C vs ethanol control; type: physicochemical; conditions: 1:50 dilution of 1 mM stock, 30 min room temperature, centrifuged, % of absorbance of 100% ethanol control
Experimental: Effects of the various combinations of asymmetrical and symmetrical side chains and methine bridges on the solubility of the compounds of the present invention were examined. Solubility in a commercially available probe diluent. Diluent C, was also tested. Triplicate 1:50 dilutions of stock 1 mM probe solutions were made in either ethanol or test diluent. After 30 minutes at room temperature solutions were centrifuged at 10,000×g for 10 minutes to remove any microagregates and 100 ul aliquots were transferred to 2.0 ml of ethanol for absorbance determinations. Based on the teachings of Leung et al. and on solubility specifications found on Sigma Certificates of Analysis for the commercial diluent (diluent supernatant absorbance at 30 minutes at least 60% of ethanol supernatant absorbance after 30 minutes), a preliminary specification at least 60% of the ethanol control was set as a surrogate for solubility sufficient to achieve cell labeling with S/N ratios greater than 100 and to minimize potential problems with brightness or reproducibility of labeling. Certain example compounds were soluble after 30 minutes in Diluent C.
Diluent C is a commercially available isotonic salt-free vehicle (Sigma-Aldrich Chemical Company) that is commonly used.

U937 cells = test: Probe effects on cell viability and cell growth (Maximum Tolerated Concentration); type: cell-based; conditions: for Maximum Tolerated Concentration (MTC): cultured U937 cells, 10^7 cells/ml, labeled 5 min in Diluent C, cultured 22-24 hours
Experimental: U937 cells were stained at a concentration of 10^7 cells/ml with increasing concentrations of probe by rapidly admixing 2× cells suspended in Diluent C with 2× probe in Diluent C. After 5 minutes at room temperature, the staining was stopped by the addition of cell culture medium. Cells were then washed thoroughly and cultured under standard conditions for 22-24 hours. Cell numbers were compared to those in a control culture treated with diluent alone.
Cells labeled with both dyes were also monitored daily for changes in mean fluorescence intensity (MFI), using a FACSAria flow cytometer with 488 nm excitation for PKH26 and 405 nm excitation for F305B. […] However, initial MFI's were high enough to detect at least 4 and possibly 5 or 6 cell doublings before the fluorescence intensity distribution of labeled cells began to overlap substantially with that of unstained cells. Color overlap of F305B into filter windows used for detection of 488 nm or 633 nm excited dyes was minimal. Since 405 nm excited dyes are less commonly available than 488 nm and 633 nm excited dyes of this nature were therefore deemed useful, despite their somewhat lesser signal:noise ratio, for providing increased flexibility in choice of spectral window to be used for monitoring membrane labeled cells and their proliferation.
Cells labeled with both dyes were also monitored daily for changes in mean fluorescence intensity (MFI), using a FACSCalibur flow cytometer with 488 nm excitation for PKH26 and 633 nm excitation for F308B.
Cells labeled either with PKH26 or with F319B were also monitored daily for changes in mean fluorescence intensity (MFI), using a FACSAria flow cytometer with 488 nm excitation for PKH26 and 785 nm excitation for F319B. […] Although the cells could only be followed for 4-5 doublings when labeled with PKH26, at least 6 doublings could be monitored using F319B before the fluorescence intensity distribution of labeled cells began to overlap substantially with that of unstained cells. Color overlap of F319B was minimal in filter windows used for detection of fluorescein, phycoerthyrin (PE), allophycocyanin (APC), and PE-Texas Red, PE-Cy5 or PerCP-Cy5.5 tandem conjugate dyes.

[3] = U937 cells stained at each dye's MTC, monitored daily for 4 days (approximately 4 doublings)

- Abs Max [1]: 788 nm
- Flourescence Ex Max [1]: 790 nm
- Fluorescence Em Max [1]: 814 nm
- Extinction Coefficient [1]: 205,400 M^−1cm^−1
- Solubility >60% of EtOH Control @ 30 min [2]: 95%
SMILES: CCCCCCCCCCCCCCCCCCCCCC[N+]1=C(/C=C/C=C/C=C/C=C2/N(CCCCCCCCCCCCCC)c3ccc4ccccc4c3C2(C)C)C(C)(C)c2c1ccc1ccccc21.[I-] [Compound F277A]

SMILES: CCCCCCCCCCCCCCCCN1/C(=C\C=C\c2oc3ccc(C(C)(C)C)cc3[n+]2CCCCCCCCCCCCCCCC)Oc2ccc(C(C)(C)C)cc21.[I-] [Compound F304B]
- Abs Max [1]: 493 nm
- Flourescence Ex Max [1]: 494 nm
- Fluorescence Em Max [1]: 508 nm
- Extinction Coefficient [1]: 160,000 M^−1cm^−1

SMILES: CCCCCCCCCCCCCCCCCCCCCC[n+]1c(/C=C2\Sc3ccccc3N2CCCCCCCCCCCCCC)sc2ccccc21.[I-] [Compound F305B]
- Abs Max [1]: 425 nm
- Flourescence Ex Max [1]: 420 nm
- Fluorescence Em Max [1]: 461 nm
- Extinction Coefficient [1]: 81,200 M^−1cm^−1
- cell growth compared with PKH26-stained cells (U937 cells; [3]): comparable growth
- Maximum Tolerated Concentration (MTC) (U937 cells): 20 µmol/L

SMILES: CCCCCCCCCCCCCCCCCCN1/C(=C\C=C\c2oc3ccc(C(C)(C)C)cc3[n+]2CCCCCCCCCCCCCCCCCC)Oc2ccc(C(C)(C)C)cc21.[I-] [Compound F306B]
- Abs Max [1]: 492 nm
- Flourescence Ex Max [1]: 493 nm
- Fluorescence Em Max [1]: 508 nm
- Extinction Coefficient [1]: 135,000 M^−1cm^−1

SMILES: CCCCCCCCCCCCCCCCCCCCCC[N+]1=C(/C=C/C=C/C=C2/N(CCCCCCCCCCCCCC)c3ccc([N+](=O)[O-])cc3C2(C)C)C(C)(C)c2ccccc21.[I-] [Compound F308B]
- Abs Max [1]: 649 nm
- Flourescence Ex Max [1]: 493 nm
- Fluorescence Em Max [1]: 671 nm
- Extinction Coefficient [1]: 134,610 M^−1cm^−1
- cell growth compared with PKH26-stained cells (U937 cells; [3]): comparable growth
- Maximum Tolerated Concentration (MTC) (U937 cells): 15 µmol/L

SMILES: CCCCCCCCCCCCCCCCCCCCCC[N+]1=C(/C=C/C=C/C=C/C=C2/N(CCCCCCCCCCCCCC)c3ccc([N+](=O)[O-])cc3C2(C)C)C(C)(C)c2ccccc21.[I-] [Compound F319B]
- Abs Max [1]: 743 nm
- Fluorescence Em Max [1]: 776 nm
- Extinction Coefficient [1]: 112,500 M^−1cm^−1
- cell growth compared with PKH26-stained cells (U937 cells; U937 cells, F319B 12.5 micromol/L vs PKH26 12 micromol/L, monitored daily for 6 days): comparable growth
- Maximum Tolerated Concentration (MTC) (U937 cells): 20 µmol/L
